Source: publication PMC7979765, “trans-Translation inhibitors bind to a novel site on the ribosome and clear Neisseria gonorrhoeae in vivo” (Nature Communications, 2021)
≈ marks a conversion by molar mass, not a printed value. Where “and” joins values, the source holds several entries; their conditions need not be identical. Equal entries are not always repeated. Where two headings read alike, the source gives them in different places.

Tests used:
Assay type in all cases: cell-based
[1] = test system: Neisseria gonorrhoeae; test: MIC, microbroth dilution, G77L medium; settings: replicates 1-3
[2] = test system: Escherichia coli; test: microbe, parasite or virus in culture
[3] = test system: Staphylococcus aureus; test: MIC, microbroth dilution

Compound: O=C(Nc1nnc(-c2ccc(F)cc2)o1)N1CCc2ccccc2C1 [MBX-4132]
- MIC ([1]; strain CDC-0176): 0.338 µg/mL (≈ 0.999 µM)
- MIC ([1]; strain CDC-0177): 0.169 µg/mL (≈ 0.499 µM)
- MIC ([1]; strain CDC-0178): 0.338 µg/mL (≈ 0.999 µM)
- MIC ([1]; strain CDC-0179): 0.085 µg/mL (≈ 0.251 µM)
- MIC ([1]; strain CDC-0180): 0.169 µg/mL (≈ 0.499 µM)
- MIC ([1]; strain CDC-0181): 0.169 µg/mL (≈ 0.499 µM)
- MIC ([1]; strain CDC-0182): 0.169 µg/mL (≈ 0.499 µM)
- MIC ([1]; strain CDC-0183): 0.338 µg/mL (≈ 0.999 µM)
- MIC ([1]; strain CDC-0184): 0.169 µg/mL (≈ 0.499 µM)
- MIC ([1]; strain CDC-0185): 0.338 µg/mL and 0.169 µg/mL
- MIC ([1]; strain CDC-0186): 0.169 µg/mL (≈ 0.499 µM)
- MIC ([1]; strain CDC-0187): 0.338 µg/mL (≈ 0.999 µM)
- MIC ([1]; strain CDC-0188): 0.169 µg/mL (≈ 0.499 µM)
- MIC ([1]; strain CDC-0189): 0.085 µg/mL and 0.169 µg/mL
- MIC ([1]; strain CDC-0190): 0.169 µg/mL (≈ 0.499 µM)
- MIC ([1]; strain HO41): 0.169 µg/mL (≈ 0.499 µM)
- MIC ([1]; strain WHO F): 0.066 µg/mL (≈ 0.195 µM)
- MIC ([1]; strain WHO G): 0.132 µg/mL (≈ 0.39 µM)
- MIC ([1]; strain WHO K): 0.264 µg/mL (≈ 0.78 µM)
- MIC ([1]; strain WHO L): 0.264 µg/mL (≈ 0.78 µM)
- MIC ([1]; strain WHO M): 0.132 µg/mL (≈ 0.39 µM)
- MIC ([1]; strain WHO N): 0.264 µg/mL (≈ 0.78 µM)
- MIC ([1]; strain WHO O): 0.132 µg/mL (≈ 0.39 µM)
- MIC ([1]; strain WHO P): 0.529 µg/ml and 0.264 µg/ml (2×)
- MIC ([1]; strain WHO U): 0.132 µg/mL (≈ 0.39 µM)
- MIC ([1]; strain WHO V): 0.264 µg/mL (≈ 0.78 µM)
- MIC ([1]; strain WHO W): 0.132 µg/mL (≈ 0.39 µM)
- MIC ([1]; strain WHO X): 0.264 µg/mL (≈ 0.78 µM)
- MIC ([1]; strain WHO Y): 0.132 µg/mL and 0.264 µg/mL
- MIC ([1]; strain WHO Z): 0.264 µg/mL (≈ 0.78 µM)
- MIC ([2]; E. coli KLE701 (ΔtolC::tet), source data, individual replicates): 4.229 µg/mL (≈ 12.5 µM)
- MIC ([2]; Escherichia coli KLE700, replicates): ≥34 µg/mL
- MIC ([2]; Escherichia coli KLE701 (ΔtolC), replicates): 2.11 µg/ml (4×) and 4.23 µg/ml (2×)
- MIC ([2]; Escherichia coli, E. coli KLE701 (ΔtolC::tet), source data, individual replicates): 2.11 µg/mL (≈ 6.25 µM)
- MIC ([2]; Escherichia coli, Escherichia coli KLE700, replicates, read-out: MIC): ≥ 34 µg/mL
- MIC ([2]; Escherichia coli, strain KLE700, read-out: MIC): ≥ 34 µg/mL
- MIC ([2]; Escherichia coli, strain KLE701, KLE700 ΔtolC::tet): 2.8 µg/mL (≈ 8.28 µM)
- MIC ([3]; Staphylococcus aureus ATCC 25923, replicates): 8.46 µg/mL (≈ 25 µM)
- MIC ([3]; Staphylococcus aureus ATCC 35556, replicates): 4.23 µg/mL (≈ 12.5 µM)
- MIC ([3]; Staphylococcus aureus BAA-1717, replicates): 1 µg/mL (≈ 2.96 µM)
- MIC ([3]; Staphylococcus aureus MRSA-1094, replicates): 2.11 µg/mL and 4.23 µg/mL
- MIC ([3]; Staphylococcus aureus MRSA-1234547263, replicates): 2.11 µg/mL and 4.23 µg/mL
- MIC ([3]; Staphylococcus aureus MSSA, replicates): 2.11 µg/mL and 4.23 µg/mL
- MIC ([3]; Staphylococcus aureus N315, NRS-70, replicates): 8.46 µg/mL (≈ 25 µM)
- MIC ([3]; Staphylococcus aureus NRS-77, replicates): 2.11 µg/mL and 4.23 µg/mL
- MIC ([3]; Staphylococcus aureus THC1516, replicates): 0.5 µg/ml (3×) and 1 µg/ml (2×)
- MIC ([3]; Staphylococcus aureus, ATCC25923, Staphylococcus aureus ATCC 25923, replicates, read-out: MIC): 4.23 µg/mL (≈ 12.5 µM)
- MIC ([3]; Staphylococcus aureus, ATCC25923, strain ATCC 25923, read-out: MIC): 6.3 µg/mL (≈ 18.6 µM)
- MIC ([3]; Staphylococcus aureus, ATCC35556, Staphylococcus aureus ATCC 35556, replicates, read-out: MIC): 4.23 µg/mL (≈ 12.5 µM)
- MIC ([3]; Staphylococcus aureus, ATCC35556, strain ATCC 35556, read-out: MIC): 4.2 µg/mL (≈ 12.4 µM)
- MIC ([3]; Staphylococcus aureus, BAA1717, Staphylococcus aureus BAA-1717, replicates, read-out: MIC): 1 µg/mL (≈ 2.96 µM)
- MIC ([3]; Staphylococcus aureus, BAA-1717 / MRSA, strain BAA-1717, MRSA, read-out: MIC): 1 µg/mL (≈ 2.96 µM)
- MIC ([3]; Staphylococcus aureus, MRSA / NRS 70, strain N315, NRS-70, MRSA, read-out: MIC): 6.3 µg/mL (≈ 18.6 µM)
- MIC ([3]; Staphylococcus aureus, MRSA, strain MRSA-1094, MRSA, read-out: MIC): 3.2 µg/mL (≈ 9.46 µM)
- MIC ([3]; Staphylococcus aureus, MRSA, strain MRSA-1234547263, MRSA, read-out: MIC): 3.2 µg/mL (≈ 9.46 µM)
- MIC ([3]; Staphylococcus aureus, MRSA, strain THC1516, MRSA, read-out: MIC): 1 µg/mL (≈ 2.96 µM)
- MIC ([3]; Staphylococcus aureus, MSSA, strain MSSA, read-out: MIC): 3.2 µg/mL (≈ 9.46 µM)
- MIC ([3]; Staphylococcus aureus, NRS70, Staphylococcus aureus N315, NRS-70, replicates, read-out: MIC): 4.23 µg/mL (≈ 12.5 µM)
- MIC ([3]; Staphylococcus aureus, NRS77, strain NRS-77, read-out: MIC): 3.2 µg/mL (≈ 9.46 µM)
- MIC ([3]; Staphylococcus aureus, Staphylococcus aureus THC1516, replicates, read-out: MIC): 0.5 µg/mL (≈ 1.48 µM)
